Consider 32 compounds from patent US9073940B2, “Tricyclic pyrazol amine derivatives” (MERCK SERONO SA, priority 2009, dated 2015).

pIC50: −log10 of the molar value.

One assay deals with 4 PI3K isoforms (Human recombinant GST-PI3K). Put plainly: PI3K scintillation proximity assay, best IC50 obtained with the four isoforms (alpha, beta, delta, gamma). It counts as biochemical. To be noted: best IC50 obtained with the four isoforms of PI3K; read-out: Best potency measured on the 4 PI3K isoforms.
Consider `O=C(c1nn([C@H]2CCN(CCN3CCC(F)CC3)C2)c2c1CS(=O)(=O)c1ccccc1-2)N1CCOCC1` (single isomer, unassigned) [Example 410, 1-{1-[2-(4-fluoropiperidin-1-yl)ethyl]pyrrolidin-3-yl}-3-(morpholin-4-ylcarbonyl)-1,4-dihydrothiochromeno[4,3-c]pyrazole 5,5-dioxide], for which the pIC50 was 5.43. Same read-out and setting: the result for `O=C(c1nn(-c2cccc(Cl)c2)c2c1CS(=O)(=O)c1ccccc1-2)N1CCOCC1` [Example 26, 1-(3-chlorophenyl)-3-(morpholin-4-ylcarbonyl)-1,4-dihydrothiochromeno[4,3-c]pyrazole 5,5-dioxide] reads 6.36; that for `O=C(c1nn(C2CCN(CCn3ccnc3)C2)c2c1CS(=O)(=O)c1ccccc1-2)N1CCOCC1` (centres unmarked) [Example 288, 1-{1-[2-(1H-Imidazol-1-yl)ethyl]pyrrolidin-3-yl}-3-(morpholin-4-ylcarbonyl)-1,4-dihydrothiochromeno[4,3-c]pyrazole 5,5-dioxide], 6.78. With `O=C(c1nn(C2CCCOC2)c2c1CS(=O)(=O)c1ccccc1-2)N1CCOCC1` (centres unmarked) [Example 99], the pIC50 was 6.49. As for `O=C(c1nn(C2CCCN(CCC3CCOCC3)C2)c2c1CS(=O)(=O)c1c(Cl)cccc1-2)N1CCOCC1` (centres unmarked) [Example 301, 6-Chloro-3-(morpholin-4-ylcarbonyl)-1-{1-[2-(tetrahydro-2H-pyran-4-yl)ethyl]piperidin-3-yl}-1,4-dihydrothiochromeno[4,3-c]pyrazole 5.5-dioxide], the pIC50 is 7.42. Consider `CC(=O)Nc1ccc2c(c1)-c1c(c(C(=O)N3CCOCC3)nn1-c1ccccc1)CS2(=O)=O` [Example 100, N-[3-(Morpholin-4-ylcarbonyl)-5,5-dioxido-1-phenyl-1,4-dihydrothiochromeno[4,3-c]pyrazol-8-yl]acetamide], for which the pIC50 was 6.06. Take `COCCOCCN1CCCC(n2nc(C(=O)N3CCOCC3)c3c2-c2ccccc2S(=O)(=O)C3)C1` (centres unmarked) [Example 225, 1-{1-[2-(2-Methoxyethoxy)ethyl]piperidin-3-yl}-3-(morpholin-4-ylcarbonyl)-1,4-dihydrothiochromeno[4,3-c]pyrazole 5,5-dioxide]: the pIC50 is 6.20. `Cc1cccc(-n2nc(C(=O)N3CCOCC3)c3c2-c2ccccc2S(=O)(=O)C3)c1` [Example 6, 1-(3-methylphenyl)-3-(morpholin-4-ylcarbonyl)-1,4-dihydrothiochromeno[4,3-c]pyrazole 5,5-dioxide]: the pIC50 is 6.03.

In the case of `O=C(c1nn(-c2cccc(Cn3cccn3)c2)c2c1CS(=O)(=O)c1ccccc1-2)N1CCOCC1` [Example 292, 3-(Morpholin-4-ylcarbonyl)-1-[3-(1H-pyrazol-1-ylmethyl)phenyl]-1,4-dihydrothiochromeno[4,3-c]pyrazole 5,5-dioxide], the pIC50 is 6.31. Same read-out and setting: then `O=C(c1nn(-c2ccc(CO)cc2)c2c1CS(=O)(=O)c1ccccc1-2)N1CCOCC1` [Example 153, {4-[3-(Morpholin-4-ylcarbonyl)-5,5-dioxidothiochromeno[4,3-c]pyrazol-1(4H)-yl]phenyl}methanol], with 5.97; and `COC1CCN(C(=O)c2cccc(-n3nc(C(=O)N4CCOCC4)c4c3-c3ccccc3S(=O)(=O)C4)c2)CC1` [Example 142, 1-{3-[(4-Methoxypiperidin-1-yl)carbonyl]phenyl}-3-(morpholin-4-ylcarbonyl)-1,4-dihydrothiochromeno[4,3-c]pyrazole 5,5-dioxide], with 6.52. On to `COc1cccc2c1S(=O)(=O)Cc1c(C(=O)N3CCOCC3)nn([C@H]3CCCN(CCN4CC(F)(F)C4)C3)c1-2` (single isomer, unassigned) [Example 442, 1-{1-[2-(3,3-difluoroazetidin-1-yl)ethyl]piperidin-3-yl}-6-methoxy-3-(morpholin-4-ylcarbonyl)-1,4-dihydrothiochromeno[4,3-c]pyrazole 5,5-dioxide], for which the pIC50 was 7.40.

Consider `O=C(c1nn(C2CCCCC2)c2c1CS(=O)(=O)c1cc(Br)ccc1-2)N1CCOCC1` [Example 128, 7-Bromo-1-cyclohexyl-3-(morpholin-4-ylcarbonyl)-1,4-dihydrothiochromeno[4,3-c]pyrazole 5,5-dioxide], for which the pIC50 was 6.16. Regarding `O=C(c1nn(C2CCCN(CC3CCOC3)C2)c2c1CS(=O)(=O)c1ccccc1-2)N1CCOCC1` (centres unmarked) [Example 265, 3-(Morpholin-4-ylcarbonyl)-1-[1-(tetrahydrofuran-3-ylmethyl)piperidin-3-yl]-1,4-dihydrothiochromeno[4,3-c]pyrazole 5,5-dioxide], the pIC50 is 7.01. On the same count and under the same terms, then `O=C(c1nn(-c2ccc3nn(Cc4ccccc4)cc3c2)c2c1CS(=O)(=O)c1ccccc1-2)N1CCOCC1` [Example 204, 1-(2-Benzyl-2H-indazol-5-yl)-3-(morpholin-4-ylcarbonyl)-1,4-dihydrothiochromeno[4,3-c]pyrazole 5,5-dioxide], with 5.68; and `O=C(c1nn(-c2ccccc2)c2c1CS(=O)(=O)c1ccc([N+](=O)[O-])cc1-2)N1CCOCC1` [Example 36, 3-(morpholin-4-ylcarbonyl)-8-nitro-1-phenyl-1,4-dihydrothiochromeno[4,3-c]pyrazole 5,5-dioxide], with 5.74.

Turning to `O=C(c1nn(-c2cccc(-c3ccoc3)c2)c2c1CS(=O)(=O)c1ccccc1-2)N1CCOCC1` [Example 197, 1-[3-(3-Furyl)phenyl]-3-(morpholin-4-ylcarbonyl)-1,4-dihydrothiochromeno[4,3-c]pyrazole 5,5-dioxide], the pIC50 was 6.08. Still for that read-out and setting: the result for `COc1cccc2c1S(=O)(=O)Cc1c(C(=O)N3CCOCC3)nn([C@H]3CCCN(CCN4CCOCC4)C3)c1-2` (single isomer, unassigned) [Example 424, 6-methoxy-3-(morpholin-4-ylcarbonyl)-1-[1-(2-morpholin-4-ylethyl)piperidin-3-yl]-1,4-dihydrothiochromeno[4,3-c]pyrazole 5,5-dioxide] reads 7.23. Take `COC1CCN(Cc2ccc(-n3nc(C(=O)N4CCOCC4)c4c3-c3ccccc3S(=O)(=O)C4)cc2)C1` (centres unmarked) [Example 267, 1-{4-[(3-Methoxypyrrolidin-1-yl)methyl]phenyl}-3-(morpholin-4-ylcarbonyl)-1,4-dihydrothiochromeno[4,3-c]pyrazole 5,5-dioxide]: the pIC50 is 7.23.

On to `O=C(c1nn(C2CCN(CCO)CC2)c2c1CS(=O)(=O)c1ccccc1-2)N1CCOCC1` [Example 121, 2-{4-[3-(Morpholin-4-ylcarbonyl)-5,5-dioxidothiochromeno[4,3-c]pyrazol-1 (4H)-yl]piperidin-1-yl}ethanol], for which the pIC50 is 5.76. With `O=C(c1nn(C2CCNC2)c2c1CS(=O)(=O)c1ccccc1-2)N1CCOCC1` (centres unmarked) [Example 84], the pIC50 was 5.33. On the same count and under the same terms, the result for `CS(=O)(=O)c1ccc(-n2nc(C(=O)N3CCOCC3)c3c2-c2ccccc2S(=O)(=O)C3)cc1` [Example 130, 1-[4-(Methylsulfonyl)phenyl]-3-(morpholin-4-ylcarbonyl)-1,4-dihydrothiochromeno[4,3-c]pyrazole 5,5-dioxide] reads 5.34; that for `Cc1ccccc1-n1nc(C(=O)N2CCOCC2)c2c1-c1ccccc1S(=O)(=O)C2` [Example 19, 1-(2-methylphenyl)-3-(morpholin-4-ylcarbonyl)-1,4-dihydrothiochromeno[4,3-c]pyrazole 5,5-dioxide], 5.64; that for `COCCCN1CCCC(n2nc(C(=O)N3CCOCC3)c3c2-c2ccccc2S(=O)(=O)C3)C1` (centres unmarked) [Example 172, 1-[1-(3-Methoxypropyl)piperidin-3-yl]-3-(morpholin-4-ylcarbonyl)-1,4-dihydrothiochromeno[4,3-c]pyrazole 5,5-dioxide], 6.85. Still for that read-out and setting: the result for `O=C(c1nn(-c2cccc(N3CCOCC3)c2)c2c1CS(=O)(=O)c1ccccc1-2)N1CCOCC1` [Example 154, 3-(Morpholin-4-ylcarbonyl)-1-(3-morpholin-4-ylphenyl)-1,4-dihydrothiochromeno[4,3-c]pyrazole 5,5-dioxide] reads 6.17.

As for `O=C(c1nn(C2CCOC2)c2c1CS(=O)(=O)c1ccccc1-2)N1CCOCC1` (centres unmarked) [Example 342, 3-(Morpholin-4-ylcarbonyl)-1-(tetrahydrofuran-3-yl)-1,4-dihydrothiochromeno[4,3-c]pyrazole 5,5-dioxide], the pIC50 is 6.05. On the same count and under the same terms, then `O=C(c1nn(-c2ccc(CN3CC(F)C3)cc2)c2c1CS(=O)(=O)c1ccccc1-2)N1CCOCC1` [Example 430, 1-{4-[(3-Fluoroazetidin-1-yl)methyl]phenyl}-3-(morpholin-4-ylcarbonyl)-1,4-dihydrothiochromeno[4,3-c]pyrazole 5,5-dioxide], with 6.64. Still for that read-out and setting: then `COCCN1CCC[C@H](n2nc(C(=O)N3CCOCC3)c3c2-c2cccc(OC)c2S(=O)(=O)C3)C1` (single isomer, unassigned) [Example 428, 6-methoxy-1-[1-(2-methoxyethyl)piperidin-3-yl]-3-(morpholin-4-ylcarbonyl)-1,4-dihydrothiochromeno[4,3-c]pyrazole 5,5-dioxide], with 6.89; and `CC(C)(C)CCN1CCCC(n2nc(C(=O)N3CCOCC3)c3c2-c2ccccc2S(=O)(=O)C3)C1` (centres unmarked) [Example 220, 1-[1-(3,3-Dimethylbutyl)piperidin-3-yl]-3-(morpholin-4-ylcarbonyl)-1,4-dihydrothiochromeno[4,3-c]pyrazole 5,5-dioxide], with 6.23.

Take `CC1(C)CCCC(n2nc(C(=O)N3CCOCC3)c3c2-c2ccccc2S(=O)(=O)C3)C1` (centres unmarked) [Example 171, 1-(3,3-Dimethylcyclohexyl)-3-(morpholin-4-ylcarbonyl)-1,4-dihydrothiochromeno[4,3-c]pyrazole 5,5-dioxide]: the pIC50 was 6.30. In the case of `O=C(c1nn(Cc2nc3ccccc3s2)c2c1CS(=O)(=O)c1ccccc1-2)N1CCOCC1` [Example 239, 1-(1,3-Benzothiazol-2-ylmethyl)-3-(morpholin-4-ylcarbonyl)-1,4-dihydrothiochromeno[4,3-c]pyrazole 5,5-dioxide], the pIC50 was 5.83.

The same assay, now with this note: inhibition at 20 μM.
As for `O=C(c1nn(-c2ccccc2)c2c1CS(=O)(=O)c1c(CN3CCCCC3)cccc1-2)N1CCOCC1` [Example 319], the “Best potency measured on the 4 PI3K isoforms, % inh @20 μM” value was found to be 33% inh @20 μM.
